In article PMC12557437, “Research towards selective inhibition of the CLK3 kinase” (Beilstein Journal of Organic Chemistry, 2025):
Where “and” joins values, the source holds several entries; their conditions need not be identical. Equal values may be shown once.

Experiments:
Assay type in all cases: biochemical
[1] = molecular target: T1, Mm_CLK1 (Mus musculus, UniProt P22518); test: primary screening, short panel of mammalian kinases
Source text: (§1) Our molecules have been submitted first to a primary screening against a panel of eight disease-related kinases: five members of the CMGC (for CDK, MAPK, GSK3, and CLK) group (CDK5/p25, CDK9/CyclinT, GSK3β, CLK1 and DYRK1A), one CAMK (calmodulin/calcium regulated kinase PIM1), one CK1 (the casein kinase CK1ε), and haspin as a […] kinase.
(§2) Figure 4 Primary evaluation of the inhibition of the new quinazolines against a short panel of mammalian kinases. Residual kinase activities are expressed in % of maximal activity, i.e., measured in the absence of inhibitor but with an equivalent dose of DMSO (solvent of the tested compounds). ATP concentration used in the kinase assays was 10 µM (values are means, n = 2). Kinases are from human origin (Homo sapiens) except CLK1 (from Mus musculus) and DYRK1A (from Rattus norvegicus). […]

[2] = molecular target: Hs_CDK5/p25 (Homo sapiens, UniProt Q00535); test: as above; conditions: ATP 10 µM, means, n = 2, read-out: Residual kinase activity Hs_CDK5/p25
Hs_CDK5/p25, sequence (Q00535 whole entry): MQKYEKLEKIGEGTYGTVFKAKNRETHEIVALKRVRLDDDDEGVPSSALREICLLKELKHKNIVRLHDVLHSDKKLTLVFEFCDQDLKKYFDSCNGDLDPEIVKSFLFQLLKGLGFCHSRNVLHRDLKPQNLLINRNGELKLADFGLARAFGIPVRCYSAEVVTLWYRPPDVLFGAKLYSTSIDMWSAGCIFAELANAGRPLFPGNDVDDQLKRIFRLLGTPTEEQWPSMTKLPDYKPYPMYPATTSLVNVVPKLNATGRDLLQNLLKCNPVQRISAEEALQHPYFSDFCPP
Hs_CDK5/p25, sequence (Q15078 99-307 partner limits assumed): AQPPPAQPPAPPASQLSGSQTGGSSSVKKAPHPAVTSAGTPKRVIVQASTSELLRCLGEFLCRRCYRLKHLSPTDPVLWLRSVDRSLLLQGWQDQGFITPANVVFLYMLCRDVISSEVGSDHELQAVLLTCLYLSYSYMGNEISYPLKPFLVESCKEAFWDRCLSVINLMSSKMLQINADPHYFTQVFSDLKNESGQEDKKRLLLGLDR
Source text: as §1, §2

[3] = molecular target: Hs_PIM1 (Homo sapiens, UniProt P11309); test: as above; conditions: ATP 10 µM, means, n = 2, read-out: Residual kinase activity Hs_PIM1
Hs_PIM1, sequence (P11309 whole entry): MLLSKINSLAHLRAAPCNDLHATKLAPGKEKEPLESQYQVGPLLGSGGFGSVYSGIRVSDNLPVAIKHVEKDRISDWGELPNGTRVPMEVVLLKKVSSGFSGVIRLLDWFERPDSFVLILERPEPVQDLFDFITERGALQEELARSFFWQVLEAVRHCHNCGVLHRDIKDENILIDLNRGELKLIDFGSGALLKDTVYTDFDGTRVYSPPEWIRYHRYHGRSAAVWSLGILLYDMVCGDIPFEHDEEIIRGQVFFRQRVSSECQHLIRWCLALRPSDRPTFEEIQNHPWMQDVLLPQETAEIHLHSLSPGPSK
Source text: as §1, §2

[4] = molecular target: Hs_CK1ε (Homo sapiens, UniProt P49674); test: as above; conditions: ATP 10 µM, means, n = 2, read-out: Residual kinase activity Hs_CK1ε
Hs_CK1ε, sequence (P49674 whole entry): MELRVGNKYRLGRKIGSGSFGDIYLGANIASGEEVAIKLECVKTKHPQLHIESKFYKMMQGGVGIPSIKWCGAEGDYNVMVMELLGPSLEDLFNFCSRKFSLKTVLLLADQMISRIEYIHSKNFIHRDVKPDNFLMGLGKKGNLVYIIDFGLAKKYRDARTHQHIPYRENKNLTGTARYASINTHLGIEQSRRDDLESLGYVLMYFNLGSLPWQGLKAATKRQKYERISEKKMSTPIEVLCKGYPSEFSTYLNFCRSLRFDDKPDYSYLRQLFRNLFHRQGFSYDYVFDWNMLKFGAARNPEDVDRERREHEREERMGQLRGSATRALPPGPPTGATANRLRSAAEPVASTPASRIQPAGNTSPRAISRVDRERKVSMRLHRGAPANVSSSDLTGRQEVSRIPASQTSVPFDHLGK
Source text: as §1, §2

[5] = molecular target: T2, Rn_DYRK1A (Rattus norvegicus, UniProt Q63470); test: as above; conditions: ATP 10 µM, means, n = 2, read-out: Residual kinase activity Rn_DYRK1A
Source text: as §1, §2

[6] = molecular target: Hs_CDK9/CyclinT (Homo sapiens, UniProt P50750); test: as above; conditions: ATP 10 µM, means, n = 2, read-out: Residual kinase activity Hs_CDK9/CyclinT
Hs_CDK9/CyclinT, sequence (P50750 whole entry): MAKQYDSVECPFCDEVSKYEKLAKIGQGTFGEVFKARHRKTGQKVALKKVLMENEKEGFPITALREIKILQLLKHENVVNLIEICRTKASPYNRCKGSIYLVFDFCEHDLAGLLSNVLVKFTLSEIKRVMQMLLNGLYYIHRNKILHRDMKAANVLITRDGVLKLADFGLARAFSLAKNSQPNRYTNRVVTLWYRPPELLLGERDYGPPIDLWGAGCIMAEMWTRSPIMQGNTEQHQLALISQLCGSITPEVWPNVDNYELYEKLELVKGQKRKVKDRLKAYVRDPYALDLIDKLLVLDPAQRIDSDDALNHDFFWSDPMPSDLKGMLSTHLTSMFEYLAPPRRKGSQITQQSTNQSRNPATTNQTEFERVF
Hs_CDK9/CyclinT, sequence (O60563 whole entry partner): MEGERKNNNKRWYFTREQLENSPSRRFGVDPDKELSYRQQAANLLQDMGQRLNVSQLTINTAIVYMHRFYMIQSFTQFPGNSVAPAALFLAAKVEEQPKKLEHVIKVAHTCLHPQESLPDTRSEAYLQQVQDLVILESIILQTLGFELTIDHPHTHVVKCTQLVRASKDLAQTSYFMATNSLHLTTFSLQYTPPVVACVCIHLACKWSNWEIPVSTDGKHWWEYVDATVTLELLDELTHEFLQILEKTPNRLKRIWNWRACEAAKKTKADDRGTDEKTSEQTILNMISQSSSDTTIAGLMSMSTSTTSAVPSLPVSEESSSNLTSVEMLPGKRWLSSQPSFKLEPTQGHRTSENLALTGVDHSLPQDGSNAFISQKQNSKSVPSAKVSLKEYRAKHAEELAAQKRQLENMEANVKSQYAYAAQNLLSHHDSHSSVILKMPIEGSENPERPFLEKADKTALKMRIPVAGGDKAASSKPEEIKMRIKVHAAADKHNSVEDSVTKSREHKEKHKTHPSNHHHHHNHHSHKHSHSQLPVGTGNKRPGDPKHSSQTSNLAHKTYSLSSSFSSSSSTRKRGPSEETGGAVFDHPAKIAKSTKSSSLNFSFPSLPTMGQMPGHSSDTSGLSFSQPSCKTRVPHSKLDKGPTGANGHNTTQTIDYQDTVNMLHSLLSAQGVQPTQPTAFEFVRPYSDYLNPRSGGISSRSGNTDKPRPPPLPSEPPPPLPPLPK
Source text: as §1, §2

[7] = molecular target: T3, Hs_DYRK2 (Homo sapiens, UniProt Q92630); test: radiometric γ33P-ATP kinase assay (Eurofins); conditions: 15 µM ATP; dose-response, points in duplicate
T3 construct: purchased Eurofins, UK
T3 sequence (Q92630 whole entry): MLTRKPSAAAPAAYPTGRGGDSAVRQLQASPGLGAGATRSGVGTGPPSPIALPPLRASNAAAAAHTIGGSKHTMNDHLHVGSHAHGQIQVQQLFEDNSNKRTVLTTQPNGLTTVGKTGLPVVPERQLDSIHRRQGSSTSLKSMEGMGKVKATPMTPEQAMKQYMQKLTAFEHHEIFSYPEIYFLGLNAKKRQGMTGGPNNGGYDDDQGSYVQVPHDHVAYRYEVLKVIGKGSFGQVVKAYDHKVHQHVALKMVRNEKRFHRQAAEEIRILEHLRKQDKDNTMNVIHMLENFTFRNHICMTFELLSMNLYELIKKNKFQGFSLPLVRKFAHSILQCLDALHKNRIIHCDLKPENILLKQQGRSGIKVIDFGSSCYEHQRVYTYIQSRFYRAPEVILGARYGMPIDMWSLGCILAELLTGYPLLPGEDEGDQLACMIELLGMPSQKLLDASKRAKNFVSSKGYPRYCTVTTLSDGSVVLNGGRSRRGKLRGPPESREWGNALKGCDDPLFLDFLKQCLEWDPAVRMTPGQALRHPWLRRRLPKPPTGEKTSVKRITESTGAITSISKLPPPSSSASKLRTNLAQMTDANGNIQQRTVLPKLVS
Description: (§3) Finally, in order to complete our profiling of VS-77, we then measured its activity against the DYRK 1A, DYRK1B and DYRK2 kinases and the results are reported in Table 3.
(§4) 2- Kinase inhibition studies
(§5) Kinase enzymatic activities were assayed using both luminescent ADP detection assay
(§6) (ADP-GloTM assay kit, Promega, Madison, WI) or radiometric kinase assay. These
(§7) assays were performed using the protocols described in our previous publication. […]
(§8) 1.Brahmaiah, D.; Kanaka Durga Bhavani, A.; Aparna, P.; Sampath Kumar, N.; Solhi,
(§9) H.; Le Guevel, R.; Baratte, B.; Ruchaud, S.; Bach, S.; Singh Jadav, S.; Raji Reddy, C.;
(§10) Roisnel, T.; Mosset, P.; Levoin, N.; Grée, R. Bioorg.
(§11) R.; Baratte, B.; Robert, T.; Ruchaud, S.; Bach, S.; Jadav, S. S.; Reddy, C. R.; Mosset,
(§12) P.; Gouault, N.; Levoin, N.; Grée, R. Molecules 2022, 27, 6149. […]

[8] = molecular target: T4, Hs_DYRK1B (Homo sapiens, UniProt Q9Y463); test: radiometric γ33P-ATP kinase assay (Eurofins); conditions: 15 µM ATP; dose-response, points in duplicate
T4 construct: purchased Eurofins, UK
Description: as §3, §4, §5, §6, §7, §8, §9, §10, §11, §12

[9] = molecular target: T5, Hs_DYRK1A (Homo sapiens, UniProt Q13627); test: radiometric γ33P-ATP kinase assay (Eurofins); conditions: 15 µM ATP; dose-response, points in duplicate
T5 construct: purchased Eurofins, UK
Description: as §3, §4, §5, §6, §7, §8, §9, §10, §11, §12

[10] = molecular target: T2, Rn_DYRK1A; test: radiometric γ33P-ATP kinase assay (Eurofins); conditions: 15 µM ATP; dose-response, points in duplicate
Description: as §3, §4, §5, §6, §7, §8, §9, §10, §11, §12

[11] = molecular target: Mm_CLK3 (Mus musculus, UniProt O35492); test: radiometric γ33P-ATP kinase assay (Eurofins); conditions: 15 µM ATP; dose-response, points in duplicate
Mm_CLK3, sequence (O35492 whole entry): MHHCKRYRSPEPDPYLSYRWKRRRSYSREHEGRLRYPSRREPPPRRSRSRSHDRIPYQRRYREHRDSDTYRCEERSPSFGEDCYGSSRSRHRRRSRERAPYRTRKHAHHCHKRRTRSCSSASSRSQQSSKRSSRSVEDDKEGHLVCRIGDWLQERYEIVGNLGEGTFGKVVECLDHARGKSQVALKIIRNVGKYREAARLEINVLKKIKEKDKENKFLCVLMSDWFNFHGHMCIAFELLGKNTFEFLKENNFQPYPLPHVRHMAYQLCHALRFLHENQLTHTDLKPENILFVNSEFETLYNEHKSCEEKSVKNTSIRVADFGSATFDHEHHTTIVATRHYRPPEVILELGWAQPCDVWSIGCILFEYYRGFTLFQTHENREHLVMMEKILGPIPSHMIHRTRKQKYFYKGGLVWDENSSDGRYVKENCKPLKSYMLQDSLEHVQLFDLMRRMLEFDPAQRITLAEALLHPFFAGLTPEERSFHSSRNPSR
Description: (§13) The results are reported in Table 2 and in Supporting Information File 1.
as §4, §5, §6, §7, §8, §9, §10, §11, §12

[12] = molecular target: T1, Mm_CLK1; test: radiometric γ33P-ATP kinase assay (Eurofins)
Description: as §13, §4, §5, §6, §7, §8, §9, §10
(§14) R.; Baratte, B.; Robert, T.; Ruchaud, S.; Bach, S.; Jadav, S. S.; Reddy, C. […]

[13] = molecular target: Mm_CLK4 (Mus musculus, UniProt O35493); test: radiometric γ33P-ATP kinase assay (Eurofins)
Mm_CLK4, sequence (O35493 whole entry): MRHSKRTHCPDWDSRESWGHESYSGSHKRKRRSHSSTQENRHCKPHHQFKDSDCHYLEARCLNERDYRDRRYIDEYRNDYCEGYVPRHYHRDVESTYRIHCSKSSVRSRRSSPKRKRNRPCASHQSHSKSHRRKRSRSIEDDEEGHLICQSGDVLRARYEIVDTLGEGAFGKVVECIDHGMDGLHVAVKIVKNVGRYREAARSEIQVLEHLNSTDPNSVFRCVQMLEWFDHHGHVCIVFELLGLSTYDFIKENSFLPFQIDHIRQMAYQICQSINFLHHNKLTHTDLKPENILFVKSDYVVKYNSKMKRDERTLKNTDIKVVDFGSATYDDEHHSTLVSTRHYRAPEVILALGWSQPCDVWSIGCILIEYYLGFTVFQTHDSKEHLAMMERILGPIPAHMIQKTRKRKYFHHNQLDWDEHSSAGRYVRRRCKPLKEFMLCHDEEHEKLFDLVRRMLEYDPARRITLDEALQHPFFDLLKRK
Description: as §13, §4, §5, §6, §7, §8, §9, §10, §14

[14] = molecular target: Mm_CLK2 (Mus musculus, UniProt O35491); test: radiometric γ33P-ATP kinase assay (Eurofins)
Mm_CLK2, sequence (O35491 whole entry): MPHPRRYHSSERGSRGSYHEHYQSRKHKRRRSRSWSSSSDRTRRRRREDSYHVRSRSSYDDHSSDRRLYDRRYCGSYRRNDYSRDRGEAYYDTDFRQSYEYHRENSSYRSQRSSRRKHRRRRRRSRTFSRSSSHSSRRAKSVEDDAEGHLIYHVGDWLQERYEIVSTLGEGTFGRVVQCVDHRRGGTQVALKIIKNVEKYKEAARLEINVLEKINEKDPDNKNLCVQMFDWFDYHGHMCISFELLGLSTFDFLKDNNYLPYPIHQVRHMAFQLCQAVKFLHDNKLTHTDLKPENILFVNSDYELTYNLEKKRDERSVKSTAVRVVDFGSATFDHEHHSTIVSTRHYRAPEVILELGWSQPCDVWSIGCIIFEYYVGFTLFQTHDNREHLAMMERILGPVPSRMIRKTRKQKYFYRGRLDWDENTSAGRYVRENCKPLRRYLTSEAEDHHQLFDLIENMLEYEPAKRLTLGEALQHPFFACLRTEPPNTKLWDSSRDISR
Description: as §13, §4, §5, §6, §7, §8, §9, §10, §14

[15] = 15 µM ATP, dose-response, points in duplicate

T1 sequence (P22518 whole entry): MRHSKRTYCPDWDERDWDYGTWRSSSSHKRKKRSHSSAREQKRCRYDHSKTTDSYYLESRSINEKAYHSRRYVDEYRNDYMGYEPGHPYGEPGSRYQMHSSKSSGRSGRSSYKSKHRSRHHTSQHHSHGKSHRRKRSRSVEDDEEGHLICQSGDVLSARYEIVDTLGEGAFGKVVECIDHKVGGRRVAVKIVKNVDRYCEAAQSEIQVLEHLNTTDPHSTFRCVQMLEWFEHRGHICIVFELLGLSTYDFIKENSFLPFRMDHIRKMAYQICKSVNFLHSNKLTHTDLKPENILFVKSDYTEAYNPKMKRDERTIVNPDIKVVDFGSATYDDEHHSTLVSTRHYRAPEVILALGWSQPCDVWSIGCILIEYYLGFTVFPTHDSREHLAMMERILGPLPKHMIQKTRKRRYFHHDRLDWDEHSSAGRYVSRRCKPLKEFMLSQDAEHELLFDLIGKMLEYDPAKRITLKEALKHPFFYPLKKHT

Cc1ccc(-n2cc(COc3cccc4cnc(Nc5cc(Cl)cc(-c6cccc(C(=O)O)c6)c5)nc34)nn2)c([N+](=O)[O-])c1 [Compound 13b]
activity against CLK1 in primary screening ([1]; 1 and 10 µM): significant activity against CLK1 | remaining activity at 1 µM ([1]; compound 1 μM, ATP 10 µM, means, n = 2, read-out: Residual kinase activity Mm_CLK1): 20% | remaining activity at 10 µM ([1]; compound 10 μM, ATP 10 µM, means, n = 2, read-out: Residual kinase activity Mm_CLK1): 11% | remaining activity at 1 µM ([2]; compound 1 μM): 92% | remaining activity at 10 µM ([2]; compound 10 μM): 37% | remaining activity at 1 µM ([3]; compound 1 μM): 88% | remaining activity at 10 µM ([3]; compound 10 μM): ≥ 100% | remaining activity at 1 µM ([4]; compound 1 μM): ≥ 100% | remaining activity at 10 µM ([4]; compound 10 μM): ≥ 100% | remaining activity at 1 µM ([5]; compound 1 μM): 92% | remaining activity at 10 µM ([5]; compound 10 μM): 62% | remaining activity at 1 µM ([6]; compound 1 μM): 83% | remaining activity at 10 µM ([6]; compound 10 μM): 47% | IC50 [7]: 11700 nM | IC50 [8]: 4600 nM | IC50 [9]: 5310 nM | IC50 [10]: 14800 nM | IC50 [11]: 300 nM and 303 nM | IC50 [12, 15]: 127 nM | Mm_CLK3/Mm_CLK1 ([12]; ratio of IC50 values): 2.38 | IC50 [13, 15]: 62 nM | Mm_CLK3/Mm_CLK4 ([13]; ratio of IC50 values): 4.89 | IC50 [14, 15]: 61 nM | Mm_CLK3/Mm_CLK2 ([14]; ratio of IC50 values): 4.97
